Test results reported in paper PMC6049614 (Chemical Communications (Cambridge, England), 2018).
Where a SMILES comes first, the peptide text is derived from it. Bridges are numbered along the chain shown (N, C = ends). [ ]: non-standard residue; d: D form. The star is where a group is joined. X1 = O=C(O)CN1CCN(CC(=O)O)CCN(Cc2ccc(CC(=O)*)cc2)CC1; Mpa = O=C(O)CCS

Key:
[1] = parameters: method as in PMID 693485; settings: following i.v. injection; cited from earlier work
[2] = physchem; type: physicochemical; settings: pH 7.4
Description: (§1) To justify use of [Al^18F]NODA-dLVT in vivo, tracer lipophilicity and specific binding were determined through a standard shake flask assay and rat brain autoradiography, respectively. A log D7.4 of –0.54 ± 0.1 was established for [Al^18F]NODA-dLVT indicating a hydrophilic profile and potential for low non-specific binding. To investigate the feasibility of [Al^18F]NODA-dLVT for nervous system imaging, tracer was incubated at a concentration of 3 nM, either alone or in the presence of excess OT (10 μM) with brain tissue cut in the sagittal plane to determine total vs. non-specific binding (Fig. 3). This enabled calculation of % specific binding of [Al^18F]NODA-dLVT to regions of brain tissue (ESI, ^† Section 4.2). [^18F]AlF-NODA-dLVT specifically bound regions known to express appreciable levels of OTR (Fig. 3),[23]–[26] including hippocampus (CA1: 53 ± 4%; subiculum, S: 60 ± 1%), central amygdala nucleus (ac: 56 ± 1%), olfactory systems (olfactory tubercle, Tu: 53 ± 5%; anterior olfactory nucleus, AO: 38 ± 2%), acumens nuclei (Acb: 43 ± 4%), and cortical regions (visual cortex, V1: 61 ± 4%; motor cortex, MC: 42 ± 4%).

[3] = molecular target: T1, OTR in rat brain slices (Rattus norvegicus, UniProt P70536); assay: Rat brain autoradiography, specific binding; settings: 3 nM tracer, nonspecific with 10 μM OT, rat brain sagittal slices
T1 construct: from tissue; host or cells: sagittal brain sections of male Wistar rats
T1 sequence (P70536 1-388): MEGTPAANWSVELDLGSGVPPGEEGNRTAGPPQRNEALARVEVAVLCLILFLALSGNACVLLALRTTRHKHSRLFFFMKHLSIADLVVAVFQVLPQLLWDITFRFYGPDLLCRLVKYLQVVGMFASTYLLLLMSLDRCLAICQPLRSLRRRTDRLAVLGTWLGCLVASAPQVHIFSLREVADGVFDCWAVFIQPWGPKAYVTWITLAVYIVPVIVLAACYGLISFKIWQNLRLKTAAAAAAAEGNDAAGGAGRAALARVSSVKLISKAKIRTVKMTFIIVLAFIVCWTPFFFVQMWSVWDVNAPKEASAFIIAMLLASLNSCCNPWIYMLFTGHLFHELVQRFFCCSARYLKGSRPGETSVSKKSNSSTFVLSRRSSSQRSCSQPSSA
Description: as §1
Fig. 3 Specific binding profile of [^18F]AlF-NODA-dLVT. Radiograms of total (top; 3 nM [^18F]AlF-NODA-dLVT) and nonspecific binding (bottom; 3 nM [^18F]AlF-NODA-dLVT and 10 μM OT) of [^18F]AlF-NODA-dLVT to rat brain slices in the sagittal pane. Areas with high specific binding are indicated on the figure with arrow heads. Key: AO = anterior olfactory nucleus; CA1 = field CA1 of the hippocampus; Acb = accumbens nuclei; Tu = olfactory tubercle; VMH = ventromedial hypothalamic nuclei; MC = motor cortex; V1 = primary visual cortex; S = subiculum; ac = central amygdala nucleus; lo = lateral olfactory tract. […]
was 84 ± 2%. After 30 min 18F yields remained at 84 ± 3%.
4.1 Tissue Preparation for rat brain autoradiography
Male Wistar rats (250 g; n=3) were stunned then decapitated. Brains were rapidly removed, incubated in 20% sucrose solution for 2 h, and immediately frozen (-80 °C). Tissues were stored at -80 °C until required. Rat brains were sectioned in the sagittal plane (20 µm thickness; according to the atlas of Paxinos and Watson, 1998). Tissues were cut using a cryostat microtome (CM3050S, Leica, UK), and thaw-mounted onto glass microscope slides. Slides were stored at -80 °C until use.
4.2 Autoradiography Procedure
Tissue was thawed to room temperature, dried then washed with ice cold buffer (50 mM Tris, pH 7.4). Sections were air dried and incubated for 1 h at room temperature with [18F]AlF-NODA-dLVT (3 nM) in buffer (50 mM Tris pH 7.4, 10 mM MgCl2). For nonspecific binding, OT (10 µM) was co-incubated with [18F]AlF-NODA-dLVT (3 nM) over the duration of the experiment. After incubation, slides were washed with ice-cold buffer (2 min × 2), followed by a final wash in ice-cold distilled water (2 min). Slides were dried in a cool airstream then exposed to 18F sensitive phosphor screens (Amersham, UK) with [18F]AlF-NODA-dLVT standards in X-ray cassettes overnight. Phosphor screens were imaged using a Typhoon 8600 scanner (Molecular Dynamics) and images were analysed with OptiQuant 5.0 (Perkin Elmer) and FIJI. Values were converted to relative binding percentages using calibrated [18F]AlF-NODA-dLVT standards. Binding potential (BP) is defined as the binding of tracer in brain region/total activity incubated as determined by the standard. Specific binding in each region is calculated by comparing the total and non-specific BP by the equation: ((total BP – non-specific BP)/total BP) × 100.

[4] = in vivo; settings: rat; for tissue uptake at 0.5 h / tissue uptake at 10 min: female, Wistar, in vivo, total radioactivity; for tissue uptake at 0.5 h: inhaled or intranasal
Description: To investigate the plausibility of i.n. administration for OT-like therapies, given the similar structure and hydrophilic profile between AlF-NODA-dLVT and OT, in vivo tissue distribution of [^18F]AlF-NODA-dLVT was determined following i.n. or i.v. administration. […]. Here, it is anticipated that both routes show independent kinetic and metabolic profiles and the extended apparent availability of OT following i.n. administration supports a longer timeframe for this study.[27],[28] Distribution was determined through gamma counting of radioactivity in isolated tissue. A large portion underwent excretion via kidneys (i.v. 4.6 ± 0.4%ID per g; i.n. 1.31 ± 0.7%ID per g) and urine (i.v. 2.5 ± 1.2%ID per g; i.n. 7.7 ± 2.2%ID per g), as expected from the hydrophilic character of the tracer, similar to previous results found with radiolabelled OT given i.v. (Fig. 4A).[29]
Fig. 4 Biodistribution of [^18F]AlF-NODA-dLVT in rat. […] Both are shown relative to blood levels following either i.n. (30 min) or i.v. (10 min) administration. Each data point corresponds to mean ± SD, n = 3.
All animal experiments were performed in accordance to the Animals (Scientific Procedures) Act 1986 and were approved by the King’s college London ethical review committee. The work was performed under PPL 70/8230 (Reza Rezavi). Adult female Wistar rats (220 ± 4.5 g) were group housed at 21 ± 1 °C in a 12 h light:dark cycle with ad libitum access to standard rat chow and water. [18F]AlF-NODA-dLVT was formulated in 0.9% saline to contain no more than 5% MeOH. Female Wistar rats received a dose of [18F]AlF-NODA-dLVT by tail vein injection (up to 650 μL in volume), or via nasal administration using a syringe with a plastic cannula attached to one nostril (25 μL per nare).
A 0.3 mL insulin syringe, containing a 29-gauge needle, was fitted with a PE10 cannula (15 mm). The cannula was fitted so that it covered approximately 3 mm of the needle tip.
Radioligand was added to the syringe and the activity measured before and after administration to calculate the injected dose (ID). Anesthesia was induced using a mixture of 5% isoflurane and oxygen (Animalcare, UK) at a flow rate of 1 L/min and maintained at 2.5% isoflurane.
Once unresponsive, the rat was held in an almost vertical position and radioactivity was administered through one nare at the back of the nasal cavity.
Rats were sacrificed by removal of the heart under isoflurane anaesthesia at 10 min following tail vein injection or 30 min following i.n. administration. Major organs were excised, washed with saline, weighed and counted in a gamma counter (LKB Wallac 1282), together with standards of the injection mixture. Organ uptake was calculated as percentage injected dose per gram [%ID/g] of tissue mass. Data are reported as mean ± SD.

logD [2] | % specific binding, acumens nuclei (Acb) [3] | % specific binding, anterior olfactory nucleus (AO) [3] | % specific binding, central amygdala nucleus (ac) [3] | % specific binding, hippocampus CA1 [3] | % specific binding, motor cortex (MC) [3] | % specific binding, olfactory tubercle (Tu) [3] | % specific binding, subiculum (S) [3] | % specific binding, visual cortex (V1) [3] | tissue uptake at 0.5 h ([4]; uptake in brain parenchyma) | tissue uptake at 0.5 h ([4]; uptake in cerebellum) | tissue uptake at 0.5 h ([4]; uptake in kidneys) | tissue uptake at 0.5 h ([4]; uptake in olfactory bulb) | tissue uptake at 10 min ([4]; iv, uptake in brain parenchyma) | tissue uptake at 10 min ([4]; iv, uptake in cerebellum) | tissue uptake at 10 min ([4]; iv, uptake in kidneys) | tissue uptake at 10 min ([4]; iv, uptake in olfactory bulb) | brain permeable material ([4]; iv) | SMILES | plasma half-life [1]
 |  |  |  |  |  |  |  |  |  |  |  |  |  |  |  |  |  | CC[C@H](C)[C@@H]1NC(=O)[C@H](Cc2ccc(O)cc2)NC(=O)[C@@H](N)CSSC[C@@H](C(=O)N2CCC[C@H]2C(=O)N[C@@H](CC(C)C)C(=O)NCC(N)=O)NC(=O)[C@H](CC(N)=O)NC(=O)[C@H](CCC(N)=O)NC1=O [OTc, oxytocin] | approximately 3 min
-0.54 | 43 ± 4% | 38 ± 2% | 56 ± 1% | 53 ± 4% | 42 ± 4% | 53 ± 5% | 60 ± 1% | 61 ± 4% | 0.11 ± 0.03 %ID/g | 0.31 ± 0.26 %ID/g | 1.31 ± 0.7 %ID/g | 2.3 ± 1.8 %ID/g | 0.05 ± 0.03 %ID/g | 0.05 ± 0.01 %ID/g | 4.6 ± 0.4 %ID/g | 0.05 ± 0.02 %ID/g | approximately 4.7 × 10^–2 %ID per g | CC[C@H](C)[C@@H]1NC(=O)[C@H](Cc2ccc(O)cc2)NC(=O)CCSSC[C@@H](C(=O)N2CCC[C@H]2C(=O)N[C@@H](CCCCNC(=O)Cc2ccc(CN3CCN(CC(=O)O)CCN(CC(=O)O)CC3)cc2)C(=O)NCC(N)=O)NC(=O)[C@H](CC(N)=O)NC(=O)[C@H](CCC(N)=O)NC1=O [[^18F]AlF-NODA-dLVT] ([Mpa]YIQNCPK(X1)G-NH2; disulfide 1-6) | 
